Reference: US8313779B2, “Evaluation method and screening method for substance having action of activating/suppressing innate immunity, agent and food product for activating/suppressing innate immune mechanism and method for producing the same” (Genome Pharmaceuticals Institute Co., Ltd., priority 2007, dated 2012)

System: isolated head muscle specimen of the silkworm larva
Assay: Inhibition of induced muscular contraction in the isolated head muscle specimen of the silkworm larva (pre-injection of test substance, then inducer)
Type: in vivo, silkworm (Bombyx mori) larva
Experimental: The experiment using kainic acid (0.2 mM) in place of peptideglycan was carried out as a control experiment. It has been known that kainic acid is an agonist of a glutamic acid receptor and induces the muscular contraction by strongly binding to a glutamine receptor to excessively stimulate the nerve. It has been already known that the muscular contraction induced by kainic acid is inhibited by L-glutamic acid.
The experiment using kainic acid (0.2 mM) in place of BmPP was carried out as the control experiment.
As the control experiment, 0.9% NaCl in place of the rabbit antiserum against BmPP was injected.

CC(=O)N[C@@H](CS)C(=O)O [N-acetylcysteine]
inhibition of muscular contraction induced by BmPP (N-acetylcysteine 200 mM, 0.05 mL pre-injected, 0.4 μg/mL BmPP (FIG. 6)): no inhibitory effect | inhibition of muscular contraction induced by kainic acid (N-acetylcysteine 200 mM, 0.05 mL pre-injected, 0.2 mM kainic acid (FIG. 6)): no inhibitory effect | inhibition of muscular contraction induced by air (N-acetylcysteine 200 mM, 0.05 mL pre-injected, 0.05 mL of air (FIG. 6)): inhibited | inhibition of muscular contraction induced by H2O2 (N-acetylcysteine 200 mM, 0.05 mL pre-injected, 125 mM H2O2 (FIG. 6)): inhibited | inhibition of muscular contraction induced by peptideglycan (N-acetylcysteine 200 mM, 0.05 mL pre-injected, peptideglycan = autoclaved Staphylococcus aureus (FIG. 6)): inhibited

N[C@@H](CCC(=O)O)C(=O)O [L-glutamic acid]
inhibition of muscular contraction induced by BmPP (L-glutamic acid 40 mM, 0.05 mL pre-injected, then BmPP (FIG. 4)): not inhibited | inhibition of muscular contraction induced by kainic acid (L-glutamic acid 40 mM, 0.05 mL pre-injected, kainic acid 0.2 mM (FIG. 2)): inhibited | inhibition of muscular contraction induced by peptideglycan (L-glutamic acid 40 mM, 0.05 mL pre-injected, peptideglycan 0.5 mg/mL or 5 mg/mL, 0.05 mL (FIG. 2)): not inhibited | inhibition of muscular contraction induced by β-glucan (L-glutamic acid pre-injected): not inhibited
